Among the data in patent US20250250269A1, “HETEROCYCLIC GLP-1 AGONISTS” (Gasherbrum Bio, Inc., priority 2022, published 2025) are EC50 values, retold here.

This experiment addresses T1, GLP-1 Receptor (Homo sapiens, UniProt P43220).
T1 construct: host or cells: HEK293/CRE-Luc (HEK293/GLP1R/CRE-LUC)
In words: GLP-1R agonist cAMP stimulation assay (HEK293/GLP1R/CRE-LUC cells, Cisbio cAMP dynamic 2 kit). To be noted: HEK293/CRE-Luc cells stably expressing the GLP-1 Receptor, 30 min at 37° C. Format: cell-based. As to the method: Activation of GLP-1 receptor is known to stimulate cyclic AMP (cAMP) production in cells which indicates primary coupling to the Gas subunit of the G protein heterotrimeric complex.
To optimize functional activity directed toward Gas coupling, a HEK293/CRE-Luc cell line developed by HDB stably expressing the GLP-1 Receptor was used. 200× concentration of compound working solutions were prepared (Agilent Technologies Bravo) with ½ log serial dilution in 384-well Echo LDV plate (Labcyte, Cat #LP-0200). […] 200× concentration of compound working solutions were moved to 384-well white low volume plate (Greiner, Cat #784075) using Labcyte ECHO550. 1×10^5 cells/mL HEK293/GLP1R/CRE-LUC (HD Biosciences) cell suspensions prepared with assay buffer [DPBS containing 0.5 mM IBMX (Sigma, Cat #15879) and 0.1% BSA (GENVIEW, Cat #FA016-100g)], 10 μL cell suspensions were added to each well of previous generated assay plate which already contains […] compound at 200×concentration using ThermoFisher Multidrop Combi (1000 cells/well). Seal the plate and incubate at 37° C. with 5% CO2 for 30 min.
After incubation the cAMP assay signal was generated using cAMP dynamic 2 Kit (Cisbio). 5 μL cAMP-d2 working solution was added to each well, followed with 5 μL Anti-cAMP antibody-cryptate working solution added to each well using ThermoFisher Multidrop Combi. Incubate at room temperature for 1 hour protected from light. Read the fluorescence at 665 and 615 nm with Reader PerkinElmer EnVision.

T1 sequence (P43220 24-463, species assumed): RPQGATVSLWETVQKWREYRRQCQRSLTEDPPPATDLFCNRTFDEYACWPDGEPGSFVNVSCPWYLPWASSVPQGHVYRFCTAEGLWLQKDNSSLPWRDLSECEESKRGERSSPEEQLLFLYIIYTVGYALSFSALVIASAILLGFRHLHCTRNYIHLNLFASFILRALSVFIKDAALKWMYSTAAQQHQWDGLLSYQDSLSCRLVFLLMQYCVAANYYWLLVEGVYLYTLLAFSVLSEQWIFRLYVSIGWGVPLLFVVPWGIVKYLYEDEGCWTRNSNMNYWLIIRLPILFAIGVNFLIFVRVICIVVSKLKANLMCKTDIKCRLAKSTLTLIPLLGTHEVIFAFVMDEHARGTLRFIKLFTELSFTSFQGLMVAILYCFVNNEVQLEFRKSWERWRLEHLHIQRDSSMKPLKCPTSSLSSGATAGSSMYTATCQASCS

As to `Fc1ccc(COc2cccc(C3CCN(Cc4nc5cc(-c6nnc(C(F)(F)F)[nH]6)ncc5n4C[C@@H]4CCO4)CC3)n2)c2c1OCO2` [Compound 17, (S)-2-((4-(6-((7-fluorobenzo[d][1,3]dioxol-4-yl)methoxy)pyridin-2-yl)piperidin-1-yl)methyl)-3-(oxetan-2-ylmethyl)-6-(5-(trifluoromethyl)-4H-1,2,4-triazol-3-yl)-3H-imidazo[4,5-c]pyridine], the EC50 is less than 1 nM.

For `FC1(F)Oc2cccc(COc3cccc(C4CCN(Cc5nc6cc(-c7nnc(C(F)(F)F)[nH]7)ncc6n5C[C@@H]5CCO5)CC4)n3)c2O1` [Compound 18, (S)-2-((4-(6-((2,2-difluorobenzo[d][1,3]dioxol-4-yl)methoxy)pyridin-2-yl)piperidin-1-yl)methyl)-3-(oxetan-2-ylmethyl)-6-(5-(trifluoromethyl)-4H-1,2,4-triazol-3-yl)-3H-imidazo[4,5-c]pyridine], the EC50 is less than 1 nM.

As for `[2H]C1([2H])Oc2cccc(COc3cccc(C4CCN(Cc5nc6cc(-c7nnc(C(F)(F)F)[nH]7)ncc6n5C[C@@H]5CCO5)CC4)n3)c2O1` [Compound 19, (S)-2-((4-(6-((benzo[d][1,3]dioxol-4-yl-2,2-d2)methoxy)pyridin-2-yl)piperidin-1-yl)methyl)-3-(oxetan-2-ylmethyl)-6-(5-(trifluoromethyl)-4H-1,2,4-triazol-3-yl)-3H-imidazo[4,5-c]pyridine], the 50% effective concentration (EC50) is less than 1 nM.

As for `FC(F)(F)c1nnc(-c2cc3nc(CN4CCC(c5cccc(OCc6nc7ccccc7s6)n5)CC4)n(C[C@@H]4CCO4)c3cn2)[nH]1` [Compound 20, (S)-2-(((6-(1-((3-(oxetan-2-ylmethyl)-6-(5-(trifluoromethyl)-4H-1,2,4-triazol-3-yl)-3H-imidazo[4,5-c]pyridin-2-yl)methyl)piperidin-4-yl)pyridin-2-yl)oxy)methyl)benzo[d]thiazole], the EC50 was less than 1 nM.

`Cc1ccc(COc2cccc(C3CCN(Cc4nc5cc(-c6nnc(C(F)(F)F)[nH]6)ncc5n4C[C@@H]4CCO4)CC3)n2)nn1` [Compound 21, 3-methyl-6-{[(6-{1-[(3-{[(2S)-oxetan-2-yl]methyl}-6-[5-(trifluoromethyl)-4H-1,2,4-triazol-3-yl]-3H-imidazo[4,5-c]pyridin-2-yl)methyl]piperidin-4-yl}pyridin-2-yl)oxy]methyl}pyridazine]: the EC50 was less than 1 nM.

Molecule `Fc1cn(C2CC2)nc1COc1cccc(C2CCN(Cc3nc4cc(-c5nnc(C(F)(F)F)[nH]5)ncc4n3C[C@@H]3CCO3)CC2)n1` [Compound 22, (S)-2-((4-(6-((1-cyclopropyl-4-fluoro-1H-pyrazol-3-yl)methoxy)pyridin-2-yl)piperidin-1-yl)methyl)-3-(oxetan-2-ylmethyl)-6-(5-(trifluoromethyl)-4H-1,2,4-triazol-3-yl)-3H-imidazo[4,5-c]pyridine] had an EC50 of 1 to 100 nM.

Turning to `C[C@]1(c2ccc(Cl)cc2F)Oc2cccc(C3CCN(Cc4nc5cc(C(=O)O)ncc5n4C[C@@H]4CCO4)CC3)c2O1` [Compound 23, 2-((4-((S)-2-(4-chloro-2-fluorophenyl)-2-methylbenzo[d][1,3]dioxol-4-yl)piperidin-1-yl)methyl)-3-(((S)-oxetan-2-yl)methyl)-3H-imidazo[4,5-c]pyridine-6-carboxylic acid], the EC50 is less than 1 nM.

For `CNC(=O)c1cc2nc(CN3CCC(c4cccc5c4O[C@@](C)(c4ccc(Cl)cc4F)O5)CC3)n(C[C@@H]3CCO3)c2cn1` [Compound 24, 2-((4-((S)-2-(4-chloro-2-fluorophenyl)-2-methylbenzo[d][1,3]dioxol-4-yl)piperidin-1-yl)methyl)-N-methyl-3-(((S)-oxetan-2-yl)methyl)-3H-imidazo[4,5-c]pyridine-6-carboxamide], the EC50 was less than 1 nM.

`C[C@]1(c2ccc(Cl)cc2F)Oc2cccc(C3CCN(Cc4nc5cc(C(=O)NCC(F)(F)F)ncc5n4C[C@@H]4CCO4)CC3)c2O1` [Compound 25, 2-((4-((S)-2-(4-chloro-2-fluorophenyl)-2-methylbenzo[d][1,3]dioxol-4-yl)piperidin-1-yl)methyl)-3-(((S)-oxetan-2-yl)methyl)-N-(2,2,2-trifluoroethyl)-3H-imidazo[4,5-c]pyridine-6-carboxamide] gave an EC50 of less than 1 nM.

The molecule `COCCNC(=O)c1cc2nc(CN3CCC(c4cccc5c4O[C@@](C)(c4ccc(Cl)cc4F)O5)CC3)n(C[C@@H]3CCO3)c2cn1` [Compound 26, 2-((4-((S)-2-(4-chloro-2-fluorophenyl)-2-methylbenzo[d][1,3]dioxol-4-yl)piperidin-1-yl)methyl)-N-(2-methoxyethyl)-3-(((S)-oxetan-2-yl)methyl)-3H-imidazo[4,5-c]pyridine-6-carboxamide] came in with a concentration giving a half-maximal response (EC50) of less than 1 nM.

`C[C@]1(c2ccc(Cl)cc2F)Oc2cccc(C3CCN(Cc4nc5c(F)c(C(=O)O)ccc5n4C[C@@H]4CCO4)CC3)c2O1` [Compound 27, 2-((4-((S)-2-(4-chloro-2-fluorophenyl)-2-methylbenzo[d][1,3]dioxol-4-yl)piperidin-1-yl)methyl)-4-fluoro-1-(((S)-oxetan-2-yl)methyl)-1H-benzo[d]imidazole-5-carboxylic acid]: the EC50 is less than 1 nM.

The molecule `O=C(O)c1cc2nc(CN3CCC(c4cccc(OCc5ccc(Cl)cc5F)n4)CC3)n(C[C@@H]3CCO3)c2cn1` [Compound 28, (S)-2-((4-(6-((4-chloro-2-fluorobenzyl)oxy)pyridin-2-yl)piperidin-1-yl)methyl)-3-(oxetan-2-ylmethyl)-3H-imidazo[4,5-c]pyridine-6-carboxylic acid] showed an EC50 of less than 1 nM.

`O=C(O)c1cc2nc(CN3CC=C(c4cccc(OCc5ccc(Cl)cc5F)n4)CC3)n(C[C@@H]3CCO3)c2cn1` [Compound 29, (S)-2-((6-((4-chloro-2-fluorobenzyl)oxy)-3′,6′-dihydro-[2,4′-bipyridin]-1′(2′H)-yl)methyl)-3-(oxetan-2-ylmethyl)-3H-imidazo[4,5-c]pyridine-6-carboxylic acid]: the 50% effective concentration (EC50) was less than 1 nM.

Molecule `O=C(O)c1cc2nc(CN3CC=C(c4ccc(F)c(OCc5ccc(Cl)cc5F)c4)CC3)n(C[C@@H]3CCO3)c2cn1` [Compound 30, (S)-2-((4-(3-((4-chloro-2-fluorobenzyl)oxy)-4-fluorophenyl)-3,6-dihydropyridin-1(2H)-yl)methyl)-3-(oxetan-2-ylmethyl)-3H-imidazo[4,5-c]pyridine-6-carboxylic acid] came in with an EC50 of 1 to 100 nM.

`COc1cc(Cl)ccc1COc1cc(C2=CCN(Cc3nc4cc(-c5nnc(C(F)(F)F)[nH]5)ncc4n3C[C@@H]3CCO3)CC2)ccc1F` [Compound 31, (S)-2-((4-(3-((4-chloro-2-methoxybenzyl)oxy)-4-fluorophenyl)-3,6-dihydropyridin-1(2H)-yl)methyl)-3-(oxetan-2-ylmethyl)-6-(5-(trifluoromethyl)-4H-1,2,4-triazol-3-yl)-3H-imidazo[4,5-c]pyridine] gave an EC50 of less than 1 nM.

Molecule `NC(=O)c1nnc(-c2cc3nc(CN4CC=C(c5ccc(F)c(OCc6ccc(Cl)cc6F)c5)CC4)n(C[C@@H]4CCO4)c3cn2)[nH]1` [Compound 32, (S)-5-(2-((4-(3-((4-chloro-2-fluorobenzyl)oxy)-4-fluorophenyl)-3,6-dihydropyridin-1(2H)-yl)methyl)-3-(oxetan-2-ylmethyl)-3H-imidazo[4,5-c]pyridin-6-yl)-4H-1,2,4-triazole-3-carboxamide] displayed an EC50 of less than 1 nM.

Molecule `N#Cc1nnc(-c2cc3nc(CN4CC=C(c5ccc(F)c(OCc6ccc(Cl)cc6F)c5)CC4)n(C[C@@H]4CCO4)c3cn2)[nH]1` [Compound 33, (S)-5-(2-((4-(3-((4-chloro-2-fluorobenzyl)oxy)-4-fluorophenyl)-3,6-dihydropyridin-1(2H)-yl)methyl)-3-(oxetan-2-ylmethyl)-3H-imidazo[4,5-c]pyridin-6-yl)-4H-1,2,4-triazole-3-carbonitrile] displayed an EC50 of less than 1 nM.

Molecule `C[C@]1(c2ccc(Cl)cc2F)Oc2cccc(C3CCN(Cc4nc5c(F)c(-c6noc(=O)[nH]6)ccc5n4C[C@@H]4CCO4)CC3)c2O1` [Compound 34, 3-(2-((4-((S)-2-(4-chloro-2-fluorophenyl)-2-methylbenzo[d][1,3]dioxol-4-yl)piperidin-1-yl)methyl)-4-fluoro-1-(((S)-oxetan-2-yl)methyl)-1H-benzo[d]imidazol-5-yl)-1,2,4-oxadiazol-5(4H)-one] yielded an EC50 of less than 1 nM.

On to `O=c1[nH]c(-c2ccc3c(nc(CN4CCC(c5cccc(OCc6ccc(Cl)cc6F)n5)CC4)n3C[C@@H]3CCO3)c2F)no1` [Compound 35, (S)-3-(2-((4-(6-((4-chloro-2-fluorobenzyl)oxy)pyridin-2-yl)piperidin-1-yl)methyl)-4-fluoro-1-(oxetan-2-ylmethyl)-1H-benzo[d]imidazol-5-yl)-1,2,4-oxadiazol-5(4H)-one], for which the EC50 was less than 1 nM.

`C[C@]1(c2ccc(Cl)cn2)Oc2cccc(C3CCN(Cc4nc5c(F)c(-c6noc(=O)[nH]6)ccc5n4C[C@@H]4CCO4)CC3)c2O1` [Compound 36, 3-(2-((4-((S)-2-(5-chloropyridin-2-yl)-2-methylbenzo[d][1,3]dioxol-4-yl)piperidin-1-yl)methyl)-4-fluoro-1-(((S)-oxetan-2-yl)methyl)-1H-benzo[d]imidazol-5-yl)-1,2,4-oxadiazol-5(4H)-one] had an EC50 of less than 1 nM.

As usually defined, the EC50 is the midpoint of the concentration-response curve.
